Experimental data published in US20140171490A1, “Method and Device for Ophthalmic Administration of Active Pharmaceutical Ingredients” (PHARMALIGHT INC., priority 2005, published 2014).
Read-outs that look alike come from different tables or passages of the source.

Experiments:
[1] = test system: beta-adrenoceptor; conditions: cited from earlier work
[2] = design: species or system Lewis female rats; conditions: rat, in vivo
Procedure: Animal studies were carried out on Lewis female rats (6-8 weeks of age) from Harlan Laboratories Inc. (Rehovot, Israel). In some cases as noted below, the rats were anesthetized with ketamin/xylazine […].
ELISA tests were performed using commercially available ELISA kits from Assay Designs (Ann Arbor, Mich., USA) in accordance with the manufacturer's instructions in the usual way in conjunction with a BioTek EL-310 plate reader (Cambridge Scientific Products, Cambridge, Mass., USA).
Pharmaceutical compositions were administered by instillation in the eyes of rats or administered as a mist using the nebulization device described above at a rate of 10 μl minute^−1. Subsequent to administration and a waiting time, the rats were sacrificed.
Subsequent to sacrifice, serum, cerebrospinal fluid (CSF, 50-100 μl), retina, optic nerve, sclera, and aqueous humor (AH) of an animal were harvested. The retina, optic nerve, and sclera of each animal was individually homogenized in 120 ul assay buffer on ice and centrifuged. The serum, CSF, AH and the homogenized retina, optic nerve and sclera were assayed for the presence of leptin using ELISA.
Data below is expressed as pg ml^−1 for serum, CSF and AH and as pg mg^−1 for tissue (determined using the Lowry method). […]

[3] = test system: eye; conditions: cited from earlier work
[4] = test system: human corneal epithelial cells; conditions: reported in Burgalassi et al. Tox. Lett. 2001; cited from earlier work
[5] = reported in Saettone et al. Int. J. Pharma. 1996

Compound: CC(C)(C)NCC(O)COc1cccc2c1CCCC2=O.Cl (single isomer, unassigned; (-)) [Levobunolol, (−)-5-[3-(tert-Butylamino)-2-hydroxypropoxy]-3,4-dihydro-1(2H)-naphthalenone hydrochloride]
- potency in beta-blocking activity relative to its dextro isomer [1]: greater than 60 times

Compound: leptin
- leptin concentration in optic nerve and sclera relative to retina [2]: markedly higher than in the retina

Compound: C[C@@H]1CC[C@@]2(OC1)O[C@H]1[C@@H](O)[C@H]3[C@@H]4CC[C@H]5C[C@@H](O[C@@H]6O[C@H](CO)[C@H](O[C@@H]7O[C@H](CO)[C@@H](O)[C@H](O[C@@H]8OC[C@@H](O)[C@H](O)[C@H]8O)[C@H]7O[C@@H]7O[C@H](CO)[C@H](O)[C@H](O[C@@H]8O[C@H](CO)[C@@H](O)[C@H](O)[C@H]8O)[C@H]7O)[C@H](O)[C@H]6O)[C@H](O)C[C@]5(C)[C@H]4CC[C@]3(C)[C@H]1[C@@H]2C [digitonin]
- irritation to the eye [3, 5]: strongly irritating to the eye

Compound: BL-9
- irritation to the eye [3, 5]: strongly irritating to the eye

Compound: Brij-99
- irritation to the eye ([3]; reported in Morgan, J. Ocular Pharm. Ther. 1995): strongly irritation to the eye

Compound: CC(=O)O[C@H]1C[C@@]2(C)[C@@H](C[C@@H](O)[C@H]3[C@@]4(C)CC[C@@H](O)[C@@H](C)[C@@H]4CC[C@@]32C)/C1=C(\CCC=C(C)C)C(=O)O [sodium fusidate]
- irritation to the eye ([3]; reported in Furrer et al. AAPS PharmSci 2002): strongly irritating to the eye

Compound: benzalkonium chloride
- toxicity to human corneal epithelial cells relative to Brij-78 and EDTA [4]: less toxic to human corneal epithelial cells than Brij-78 but more toxic than EDTA
- irritation to the eye [3, 5]: strongly irritating to the eye

Compound: CCCCCCCCCCCCCCCC[n+]1ccccc1 [cetylpyridinium chloride]
- toxicity to human corneal epithelial cells relative to Brij-78 and EDTA [4]: less toxic to human corneal epithelial cells than Brij-78 but more toxic than EDTA
